# From patent US9980943B2, “Methods of treating muscular dystrophy” (BOARD OF REGENTS OF THE NEVADA SYSTEM OF HIGHER EDUCATION, …, priority 2013, dated 2018)
# Columns and labels:
# Type in all cases: cell-based, mouse
# [1] = tested on: α7 integrin (LacZ reporter in α7βgal+/− myoblasts); experiment: Myoblast α7+/LacZ integrin FDG assay (Burkin assay in myoblasts, 96-well); conditions: α7+/LacZ myoblasts, 96-well
# [2] = tested on: α7 integrin (LacZ reporter in α7+/LacZ myotubes); experiment: Myotube α7 integrin FDG assay (Burkin assay in myotubes, 96-well); conditions: myotubes
# [3] = tested on: β-galactosidase in CMV-LacZ C2C12 myotubes; experiment: CMV-LacZ secondary screen in C2C12 myotubes (β-Gal stabilizing assay); conditions: for CMV-LACZ in Myotubes (β-galactosidase activity relative to DMSO): CMV-LacZ C2C12 myotubes, 96-well format
# Source text: In order to determine compounds that acted to stabilize β-gal in myogenic cells, a CMV-LacZ C2C12 cell line was used in a secondary screen. The EGFP gene from the pEGFP (Clontech) vector was replaced by LACZ PCR product with digests of the vector/PCR product performed using EcoRI (NEB) and NotI (NEB) and ligated using T4 DNA Ligase (NEB) following standard procedures to produce the CMV-LACZ vector. The LACZ gene was generated by PCR from the pBK-RSV (Stratagene) vector using primers LACZ EcoRI F- and LACZ NotI R-. The CMV-LACZ vector was then digested with AfIII (NEB) to linearize the construct, which was then transfected in C2C12 myoblasts using Lipofectamine 2000 (Invitrogen) following the manufacturer's instructions. […] Clonal lines were selected and screened for βgal levels using the myoblast FDG assay.
# The assays were used the original 96-well format and new dose-response curves for myoblasts (N=3-6 replicates for each data point), myotubes (N=3-6 replicates for data point), and CMV-LacZ secondary assay (N=2 replicates for each data point) using concentrations of 0.5 μM, 1 μM, 5 μM, 10 μM, 20 μM, and 40 μM (Tables 9-16).
# [4] = 5 uM, C2C12 CMV-LacZ myotubes, fold relative to DMSO
# [5] = 10 uM, C2C12 CMV-LacZ myotubes, fold relative to DMSO
# [6] = 20 uM, C2C12 CMV-LacZ myotubes, fold relative to DMSO
# [7] = 40 uM, C2C12 CMV-LacZ myotubes, fold relative to DMSO
Compound,"Burkin Assay in Myoblasts, value relative to DMSO ([1]; 0.5 uM)","Burkin Assay in Myoblasts, value relative to DMSO ([1]; 1 uM)","Burkin Assay in Myoblasts, value relative to DMSO ([1]; 5 uM)","Burkin Assay in Myoblasts, value relative to DMSO ([1]; 10 uM)","Burkin Assay in Myoblasts, value relative to DMSO ([1]; 20 uM)","Burkin Assay in Myoblasts, value relative to DMSO ([1]; 40 uM)",Burkin Assay in Myotubes (signal relative to DMSO) ([2]; 0.5 uM),Burkin Assay in Myotubes (signal relative to DMSO) ([2]; 1 uM),Burkin Assay in Myotubes (signal relative to DMSO) ([2]; 5 uM),Burkin Assay in Myotubes (signal relative to DMSO) ([2]; 10 uM),Burkin Assay in Myotubes (signal relative to DMSO) ([2]; 20 uM),Burkin Assay in Myotubes (signal relative to DMSO) ([2]; 40 uM),"CMV-LACZ in Myotubes, signal relative to DMSO [3, 4]","CMV-LACZ in Myotubes, signal relative to DMSO [3, 5]","CMV-LACZ in Myotubes, signal relative to DMSO [3, 6]","CMV-LACZ in Myotubes, signal relative to DMSO [3, 7]","Burkin Assay in Myoblasts, signal relative to DMSO ([1]; 0.5 uM)","Burkin Assay in Myoblasts, signal relative to DMSO ([1]; 1 uM)","Burkin Assay in Myoblasts, signal relative to DMSO ([1]; 5 uM)","Burkin Assay in Myoblasts, signal relative to DMSO ([1]; 10 uM)",further results
c1ccc(-c2cnc(-c3ccccc3)nc2)cc1 [MLS000532078-01],1.091,1.076,0.944,0.9431,1.09,1.077,1.0727,1.078,1.239,1.114,1.078,1.043,0.791,0.8914,0.9443,0.8623,–,–,–,–,–
Cc1ccc(NC(=O)CC2COc3ccccc3O2)cc1 (centres unmarked) [MLS000534926-01],1.522,0.9473,0.8586,0.8832,0.5996,0.4222,1.026,0.9445,1.006,0.9622,1.338,0.8565,–,–,–,–,–,–,–,–,CMV-LACZ in Myotubes (β-galactosidase activity relative to DMSO) ([3]; 5 uM): 0.9724; CMV-LACZ in Myotubes (β-galactosidase activity relative to DMSO) ([3]; 10 uM): 0.969; CMV-LACZ in Myotubes (β-galactosidase activity relative to DMSO) ([3]; 20 uM): 0.9547; CMV-LACZ in Myotubes (β-galactosidase activity relative to DMSO) ([3]; 40 uM): 0.844
Cc1ccc(NC(=O)COc2ccccc2CNC(C)(C)CC(C)(C)C)cc1 [MLS000538580-01],–,–,–,–,–,–,–,–,–,–,–,–,0.6613,0.5729,0.3838,0.2705,0.9645,0.9097,0.8691,0.5306,"Burkin Assay in Myoblasts, signal relative to DMSO ([1]; 20 uM): 0.03863; Burkin Assay in Myoblasts, signal relative to DMSO ([1]; 40 uM): 0.02896; Burkin Assay in Myotubes, α7 integrin LacZ reporter signal relative to DMSO ([2]; 0.5 uM): 1.087; Burkin Assay in Myotubes, α7 integrin LacZ reporter signal relative to DMSO ([2]; 1 uM): 1.025; Burkin Assay in Myotubes, α7 integrin LacZ reporter signal relative to DMSO ([2]; 5 uM): 0.8641; Burkin Assay in Myotubes, α7 integrin LacZ reporter signal relative to DMSO ([2]; 10 uM): 0.4774; Burkin Assay in Myotubes, α7 integrin LacZ reporter signal relative to DMSO ([2]; 20 uM): 0.928; Burkin Assay in Myotubes, α7 integrin LacZ reporter signal relative to DMSO ([2]; 40 uM): 0.1825"
COc1cc(/C=C/c2nc(-c3ccccc3O)n[nH]2)cc(OC)c1OC [MLS000548725-01],0.9132,0.8894,0.8989,0.7645,0.5169,0.07694,0.8698,0.8418,0.9206,0.8462,1.031,0.2219,–,–,–,–,–,–,–,–,CMV-LACZ in Myotubes (β-galactosidase activity relative to DMSO) ([3]; 5 uM): 0.9789; CMV-LACZ in Myotubes (β-galactosidase activity relative to DMSO) ([3]; 10 uM): 1.126; CMV-LACZ in Myotubes (β-galactosidase activity relative to DMSO) ([3]; 20 uM): 0.8729; CMV-LACZ in Myotubes (β-galactosidase activity relative to DMSO) ([3]; 40 uM): 0.332
COc1ccc(CCNC(=O)c2cc(-c3cc(C)ccc3O)n[nH]2)cc1OC [MLS000552080-01],–,–,–,–,–,–,–,–,–,–,–,–,1.197,1.0688,0.9522,0.8044,0.9689,0.9784,1.056,1.089,"Burkin Assay in Myoblasts, signal relative to DMSO ([1]; 20 uM): 0.9333; Burkin Assay in Myoblasts, signal relative to DMSO ([1]; 40 uM): 0.8855; Burkin Assay in Myotubes, α7 integrin LacZ reporter signal relative to DMSO ([2]; 0.5 uM): 0.9672; Burkin Assay in Myotubes, α7 integrin LacZ reporter signal relative to DMSO ([2]; 1 uM): 1.15; Burkin Assay in Myotubes, α7 integrin LacZ reporter signal relative to DMSO ([2]; 5 uM): 1.214; Burkin Assay in Myotubes, α7 integrin LacZ reporter signal relative to DMSO ([2]; 10 uM): 1.24; Burkin Assay in Myotubes, α7 integrin LacZ reporter signal relative to DMSO ([2]; 20 uM): 1.0378; Burkin Assay in Myotubes, α7 integrin LacZ reporter signal relative to DMSO ([2]; 40 uM): 0.9286"
Cc1ccc(C2=C(CC(=O)O)C(=O)CC2)cc1 [MLS000553673-01],1.009,0.8952,1.038,1.0007,0.9043,0.8892,0.8749,0.8923,1.304,1.161,1.088,1.134,0.8021,0.9603,1.005,0.9127,–,–,–,–,–
O=C(Nc1ccc(Oc2cccnc2)cc1)c1ccccc1Cl [MLS000574647-01],–,–,–,–,–,–,–,–,–,–,–,–,0.9166,0.9364,0.962,1.0095,1.081,1.027,0.9641,0.9515,"Burkin Assay in Myoblasts, signal relative to DMSO ([1]; 20 uM): 0.8985; Burkin Assay in Myoblasts, signal relative to DMSO ([1]; 40 uM): 0.8343; Burkin Assay in Myotubes, α7 integrin LacZ reporter signal relative to DMSO ([2]; 0.5 uM): 0.935; Burkin Assay in Myotubes, α7 integrin LacZ reporter signal relative to DMSO ([2]; 1 uM): 0.8646; Burkin Assay in Myotubes, α7 integrin LacZ reporter signal relative to DMSO ([2]; 5 uM): 1.007; Burkin Assay in Myotubes, α7 integrin LacZ reporter signal relative to DMSO ([2]; 10 uM): 0.8596; Burkin Assay in Myotubes, α7 integrin LacZ reporter signal relative to DMSO ([2]; 20 uM): 1.006; Burkin Assay in Myotubes, α7 integrin LacZ reporter signal relative to DMSO ([2]; 40 uM): 0.8219"
COc1cc2c(cc1NC(=O)Cc1ccc(C)cc1)oc1ccccc12 [MLS000579238-01],–,–,–,–,–,–,–,–,–,–,–,–,–,–,–,–,–,–,–,–,"fold induction at 0.5 µM ([1]; Mus musculus, Myoblast, 48 h, 0.5 uM, read-out: Burkin Assay in Myoblasts, signal relative to DMSO): 0.961; fold induction at 1 µM ([1]; Mus musculus, Myoblast, 48 h, 1 uM, read-out: Burkin Assay in Myoblasts, signal relative to DMSO): 1.11; fold induction at 5 µM ([1]; Mus musculus, Myoblast, 48 h, 5 uM, read-out: Burkin Assay in Myoblasts, signal relative to DMSO): 1.17; fold induction at 10 µM ([1]; Mus musculus, Myoblast, 48 h, 10 uM, read-out: Burkin Assay in Myoblasts, signal relative to DMSO): 1.3; fold induction at 20 µM ([1]; Mus musculus, Myoblast, 48 h, 20 uM, read-out: Burkin Assay in Myoblasts, signal relative to DMSO): 1.11; fold induction at 40 µM ([1]; Mus musculus, Myoblast, 48 h, 40 uM, read-out: Burkin Assay in Myoblasts, signal relative to DMSO): 0.912; fold induction at 0.5 µM ([2]; Mus musculus, Myotube, 0.5 uM, read-out: Burkin Assay in Myotubes, α7 integrin LacZ reporter signal relative to DMSO): 0.951; fold induction at 1 µM ([2]; Mus musculus, Myotube, 1 uM, read-out: Burkin Assay in Myotubes, α7 integrin LacZ reporter signal relative to DMSO): 1.11; fold induction at 5 µM ([2]; Mus musculus, Myotube, 5 uM, read-out: Burkin Assay in Myotubes, α7 integrin LacZ reporter signal relative to DMSO): 1.01; fold induction at 10 µM ([2]; Mus musculus, Myotube, 10 uM, read-out: Burkin Assay in Myotubes, α7 integrin LacZ reporter signal relative to DMSO): 1.1; fold induction at 20 µM ([2]; Mus musculus, Myotube, 20 uM, read-out: Burkin Assay in Myotubes, α7 integrin LacZ reporter signal relative to DMSO): 0.856; fold induction at 40 µM ([2]; Mus musculus, Myotube, 40 uM, read-out: Burkin Assay in Myotubes, α7 integrin LacZ reporter signal relative to DMSO): 0.771; fold induction at 5 µM ([3]; Mus musculus, C2C12, read-out: CMV-LACZ in Myotubes, signal relative to DMSO, 5 uM, C2C12 CMV-LacZ myotubes, fold relative to DMSO): 0.815; fold induction at 10 µM ([3]; Mus musculus, C2C12, read-out: CMV-LACZ in Myotubes, signal relative to DMSO, 10 uM, C2C12 CMV-LacZ myotubes, fold relative to DMSO): 0.872; fold induction at 20 µM ([3]; Mus musculus, C2C12, read-out: CMV-LACZ in Myotubes, signal relative to DMSO, 20 uM, C2C12 CMV-LacZ myotubes, fold relative to DMSO): 0.83; fold induction at 40 µM ([3]; Mus musculus, C2C12, read-out: CMV-LACZ in Myotubes, signal relative to DMSO, 40 uM, C2C12 CMV-LacZ myotubes, fold relative to DMSO): 0.944"
